Measured values: patent publication US12077503B2, “Substituted cyclic amides and their use as herbicides” (FMC CORPORATION, priority 2015, dated 2024)

What was measured:
Assay type in all cases: in vivo
[1] = system: velvetleaf (Abutilon theophrasti); assay: Test G Post-Emergence Protocol; details: Abutilon theophrasti, post-emergence, 312 h
Summary of the method: (§1)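 Seedlings grown 8 days in soil in a glasshouse (24/16 °C day/night, 14 h light, 65% humidity) were sprayed post-emergence with compound in acetone/water 50:50 plus 0.5% Tween 20 at 15.625, 62.5 or 250 g/ha. Damage was scored after 13 days on a 0–100 scale (100 = total damage).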

[2] = system: giant foxtail (Setaria faberi); assay: Test G Post-Emergence Protocol; details: Setaria faberi, post-emergence, 312 h
Summary of the method: as §1

[3] = system: redroot pigweed (Amaranthus retroflexus); assay: Test G Post-Emergence Protocol; details: Amaranthus retroflexus, post-emergence, 312 h
Summary of the method: as §1

[4] = system: barnyardgrass (Echinochloa crus-galli); assay: Test G Post-Emergence Protocol; details: Echinochloa crus-galli, post-emergence, 312 h
Summary of the method: as §1

corn (Zea mays) [5] = assay: Test G Post-Emergence Protocol; details: Zea mays, post-emergence, 312 h
Summary of the method: as §1

[6] = system: ivy-leaved morning glory (Ipomoea hederacea); assay: Test G Post-Emergence Protocol; details: Ipomoea, post-emergence, 312 h
Summary of the method: as §1

[7] = system: velvetleaf (Abutilon theophrasti); assay: Test G Pre-Emergence Protocol; details: Abutilon theophrasti, pre-emergence, 312 h, evaluated after 13 days
Summary of the method: (§2)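 Visual injury (0–100) at day 13 after a single pre-emergence spray. Rates: 15.625, 62.5, 250 g/ha in acetone–water 50:50 with 0.5% Tween 20. Growth conditions: 24/16° C, 14 h light, 65% humidity.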

[8] = system: giant foxtail (Setaria faberi); assay: Test G Pre-Emergence Protocol; details: Setaria faberi, pre-emergence, 312 h, evaluated after 13 days
Summary of the method: as §2

[9] = system: redroot pigweed (Amaranthus retroflexus); assay: Test G Pre-Emergence Protocol; details: Amaranthus retroflexus, pre-emergence, 312 h, evaluated after 13 days
Summary of the method: as §2

[10] = system: barnyardgrass (Echinochloa crus-galli); assay: Test G Pre-Emergence Protocol; details: Echinochloa crus-galli, pre-emergence, 312 h, evaluated after 13 days
Summary of the method: as §2

corn (Zea mays) [11] = assay: Test G Pre-Emergence Protocol; details: Zea mays, pre-emergence, 312 h, evaluated after 13 days
Summary of the method: as §2

[12] = system: ivy-leaved morning glory (Ipomoea hederacea); assay: Test G Pre-Emergence Protocol; details: Ipomoea, pre-emergence, 312 h, evaluated after 13 days
Summary of the method: as §2

`CN1C[C@@H](c2ccc(C(F)(F)F)cc2)[C@H](C(=O)Nc2ccc(Cl)cc2F)C1=O` (racemic) [Compound 1602] was tested, and the pest or weed control at 15.625 g/ha ([1]; 15.625 g ai/ha, evaluated after 13 days (100=total damage to plant; 0=no damage to plant), read-out: Velvetleaf damage rating) was 0%, the pest or weed control at 62.5 g/ha ([1]; 62.5 g ai/ha, evaluated after 13 days, read-out: Velvetleaf damage rating (100=total damage to plant; 0=no damage to plant)) was 20% and the pest or weed control at 250 g/ha ([1]; 250 g ai/ha, evaluated after 13 days, read-out: damage to plant, Velvetleaf (100=total damage to plant; 0=no damage to plant)) was 40%. It also gave a pest or weed control at 15.625 g/ha ([2]; 15.625 g ai/ha, evaluated after 13 days (100=total damage to plant; 0=no damage to plant), read-out: Foxtail, Giant damage rating) of 0%, a pest or weed control at 62.5 g/ha ([2]; 62.5 g ai/ha, evaluated after 13 days, read-out: Foxtail, Giant damage rating (100=total damage to plant; 0=no damage to plant)) of 60% and a pest or weed control at 250 g/ha ([2]; 250 g ai/ha, evaluated after 13 days, read-out: damage to plant, Foxtail, Giant (100=total damage to plant; 0=no damage to plant)) of 80%. It also gave a pest or weed control at 15.625 g/ha ([3]; 15.625 g ai/ha, evaluated after 13 days (100=total damage to plant; 0=no damage to plant), read-out: Pigweed, Redroot damage rating) of 0%, a pest or weed control at 62.5 g/ha ([3]; 62.5 g ai/ha, evaluated after 13 days, read-out: Pigweed, Redroot damage rating (100=total damage to plant; 0=no damage to plant)) of 50% and a pest or weed control at 250 g/ha ([3]; 250 g ai/ha, evaluated after 13 days, read-out: damage to plant, Pigweed, Redroot (100=total damage to plant; 0=no damage to plant)) of 70%. It also gave a pest or weed control at 15.625 g/ha ([4]; 15.625 g ai/ha, evaluated after 13 days (100=total damage to plant; 0=no damage to plant), read-out: Barnyardgrass damage rating) of 0%, a pest or weed control at 62.5 g/ha ([4]; 62.5 g ai/ha, evaluated after 13 days, read-out: Barnyardgrass damage rating (100=total damage to plant; 0=no damage to plant)) of 20% and a pest or weed control at 250 g/ha ([4]; 250 g ai/ha, evaluated after 13 days, read-out: damage to plant, Barnyardgrass (100=total damage to plant; 0=no damage to plant)) of 40%. It also gave a plant injury at 15.625 g/ha (corn (Zea mays) [5]; 15.625 g ai/ha, evaluated after 13 days (100=total damage to plant; 0=no damage to plant), read-out: Corn damage rating) of 0%, a plant injury at 62.5 g/ha (corn (Zea mays) [5]; 62.5 g ai/ha, evaluated after 13 days, read-out: Corn damage rating (100=total damage to plant; 0=no damage to plant)) of 0% and a plant injury at 250 g/ha (corn (Zea mays) [5]; 250 g ai/ha, evaluated after 13 days, read-out: damage to plant, Corn (100=total damage to plant; 0=no damage to plant)) of 20%. For the same compound, the pest or weed control at 15.625 g/ha ([6]; 15.625 g ai/ha, evaluated after 13 days (100=total damage to plant; 0=no damage to plant), read-out: Morningglory, Ivy-leaved damage rating) was 10%, the pest or weed control at 62.5 g/ha ([6]; 62.5 g ai/ha, evaluated after 13 days, read-out: Morningglory, Ivy-leaved damage rating (100=total damage to plant; 0=no damage to plant)) was 50% and the pest or weed control at 250 g/ha ([6]; 250 g ai/ha, evaluated after 13 days, read-out: damage to plant, Morningglory, Ivy-leaved (100=total damage to plant; 0=no damage to plant)) was 50%. It also gave a pest or weed control at 15.625 g/ha ([7]; 15.625 g ai/ha, read-out: Velvetleaf damage rating (100=total damage to plant; 0=no damage to plant)) of 0%, a pest or weed control at 62.5 g/ha ([7]; 62.5 g ai/ha, 100=total damage to plant, 0=no damage to plant, read-out: plant damage rating, Velvetleaf) of 0% and a pest or weed control at 250 g/ha ([7]; 250 g ai/ha, read-out: Velvetleaf damage rating (100=total damage to plant; 0=no damage to plant)) of 10%. It also gave a pest or weed control at 15.625 g/ha ([8]; 15.625 g ai/ha, read-out: Foxtail, Giant damage rating (100=total damage to plant; 0=no damage to plant)) of 0%, a pest or weed control at 62.5 g/ha ([8]; 62.5 g ai/ha, 100=total damage to plant, 0=no damage to plant, read-out: plant damage rating, Foxtail, Giant) of 30% and a pest or weed control at 250 g/ha ([8]; 250 g ai/ha, read-out: Foxtail, Giant damage rating (100=total damage to plant; 0=no damage to plant)) of 70%. The pest or weed control at 15.625 g/ha ([9]; 15.625 g ai/ha, read-out: Pigweed, Redroot damage rating (100=total damage to plant; 0=no damage to plant)) was 0%, the pest or weed control at 62.5 g/ha ([9]; 62.5 g ai/ha, 100=total damage to plant, 0=no damage to plant, read-out: plant damage rating, Pigweed, Redroot) was 30% and the pest or weed control at 250 g/ha ([9]; 250 g ai/ha, read-out: Pigweed, Redroot damage rating (100=total damage to plant; 0=no damage to plant)) was 40%. It also gave a pest or weed control at 15.625 g/ha ([10]; 15.625 g ai/ha, read-out: Barnyard grass damage rating (100=total damage to plant; 0=no damage to plant)) of 0%, a pest or weed control at 62.5 g/ha ([10]; 62.5 g ai/ha, 100=total damage to plant, 0=no damage to plant, read-out: plant damage rating, Barnyardgrass) of 0% and a pest or weed control at 250 g/ha ([10]; 250 g ai/ha, read-out: Barnyardgrass damage rating (100=total damage to plant; 0=no damage to plant)) of 40%. The plant injury at 15.625 g/ha (corn (Zea mays) [11]; 15.625 g ai/ha, read-out: Corn damage rating (100=total damage to plant; 0=no damage to plant)) was 0%, the plant injury at 62.5 g/ha (corn (Zea mays) [11]; 62.5 g ai/ha, 100=total damage to plant, 0=no damage to plant, read-out: plant damage rating, Corn) was 0% and the plant injury at 250 g/ha (corn (Zea mays) [11]; 250 g ai/ha, read-out: Corn damage rating (100=total damage to plant; 0=no damage to plant)) was 0%. It also gave a pest or weed control at 15.625 g/ha ([12]; 15.625 g ai/ha, read-out: Morning-glory, Ivy-leaved damage rating (100=total damage to plant; 0=no damage to plant)) of 0%, a pest or weed control at 62.5 g/ha ([12]; 62.5 g ai/ha, 100=total damage to plant, 0=no damage to plant, read-out: plant damage rating, Morningglory, Ivy-leaved) of 0% and a pest or weed control at 250 g/ha ([12]; 250 g ai/ha, read-out: Morningglory, Ivy-leaved damage rating (100=total damage to plant; 0=no damage to plant)) of 0%.
